Measurements taken from ChEMBL document CHEMBL1158203, “A novel monogalactosylacylglycerol with inhibitory effect on platelet aggregation from the cyanophyceae Oscillatoria rosea” (J Nat Prod, 1996).
The source made the active and inactive calls. The calls are words filed in the database; no cut-off is given here.

Experiments:
[1] = tested on: Platelet; assay: Inhibition of U46619-induced platelet aggregation in rabbit platelet-rich plasma at 100 ug/mL by turbidimetric method; assay type: functional, cell-free; details: Oryctolagus cuniculus
[2] = tested on: Platelet; assay: Inhibition of thrombin-induced platelet aggregation in rabbit platelet-rich plasma at 100 ug/mL by turbidimetric method; assay type: functional, cell-free; details: Oryctolagus cuniculus
[3] = tested on: Platelet; assay: Inhibition of ionomycin-induced platelet aggregation in rabbit platelet-rich plasma at 100 ug/mL by turbidimetric method; assay type: functional, cell-free; details: Oryctolagus cuniculus
[4] = tested on: Platelet; assay: Inhibition of U46619-induced platelet aggregation in rabbit platelet-rich plasma by turbidimetric method; assay type: functional, cell-free; details: Oryctolagus cuniculus
[5] = tested on: P388; assay: Cytotoxicity against mouse P388 cells by MTT assay; assay type: functional

Structure (SMILES) | Activity [1] | Activity [2] | Activity [3] | IC50 [4] [µM] | Activity [5] [µg/mL]
CCCCCCCCCCCCCC(=O)OC[C@@H](O)COP(=O)([O-])OCC[N+](C)(C)C | Active | Active | Active | – | –
CCCCCCCCCCCCCCCC(=O)OC[C@@H](O)CO[C@@H]1O[C@H](CO)[C@H](O)[C@H](O)C1O (single isomer, unassigned) | Active | inactive | inactive | 60 | >50
